Patent US20230071840A1, “HETEROCYCLIC GLP-1 AGONISTS” (Gasherbrum Bio, Inc., priority 2020, published 2023)

The compounds below were run against GLP-1 Receptor (Homo sapiens, UniProt P43220) (assay: GLP-1R agonist cAMP stimulation assay (HEK293/GLP1R/CRE-LUC cells, cAMP dynamic 2 kit)). Settings: GLP1R cAMP Stimulation DR: EC50 (nM).
Format: cell-based
Protocol: Activation of GLP-1 receptor is known to stimulate cyclic AMP (cAMP) production in cells which indicates primary coupling to the Gas subunit of the G protein heterotrimeric complex.
To optimize functional activity directed toward Gas coupling, a HEK293/CRE-Luc cell line developed by HDB stably expressing the GLP-1 Receptor was used. […] Seal the plate and incubate at 37° C. with 5% CO2 for 30 min.
After incubation the cAMP assay signal was generated using cAMP dynamic 2 Kit (Cisbio). 5 μL cAMP-d2 working solution was added to each well, followed with 5 μL Anti-cAMP antibody-cryptate working solution added to each well using ThermoFisher Multidrop Combi. Incubate at room temperature for 1 hour protected from light.
% Activity=[…]×(mean RLU of test sample−mean RLU of vehicle control)/(mean RLU of MAX control−mean RLU of vehicle control))

GLP-1 Receptor, sequence (P43220 24-463, species assumed): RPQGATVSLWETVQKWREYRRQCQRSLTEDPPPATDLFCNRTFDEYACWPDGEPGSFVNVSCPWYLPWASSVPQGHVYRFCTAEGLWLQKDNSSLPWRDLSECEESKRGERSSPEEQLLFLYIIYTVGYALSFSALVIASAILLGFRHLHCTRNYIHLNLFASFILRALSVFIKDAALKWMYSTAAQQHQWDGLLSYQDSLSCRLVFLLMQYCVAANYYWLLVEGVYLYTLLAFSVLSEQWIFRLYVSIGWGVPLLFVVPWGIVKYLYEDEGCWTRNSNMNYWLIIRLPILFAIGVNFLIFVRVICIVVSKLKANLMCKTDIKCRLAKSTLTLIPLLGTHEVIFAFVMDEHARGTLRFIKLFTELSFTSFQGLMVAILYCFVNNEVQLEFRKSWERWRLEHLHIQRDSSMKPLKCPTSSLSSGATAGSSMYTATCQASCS

SMILES | EC50
CC(c1cccc(OC2CCN(Cc3nc4ccc(C(=O)O)nc4n3C[C@@H]3CCO3)CC2)n1)c1ccc(Cl)cc1F (stereo partly drawn) [Compound 128a, 2-{[4-({6-[1-(4-chloro-2-fluorophenyl)ethyl]pyridin-2-yl}oxy)piperidin-1-yl]methyl}-3-{[(2S)-oxetan-2-yl]methyl}-3H-imidazo[4,5-b]pyridine-5-carboxylic acid] | 1.2 nM

Same assay, conditions: HEK293/CRE-Luc cell line stably expressing the GLP-1 Receptor; 30 min incubation at 37° C.; read-out: GLP1R cAMP Stimulation DR: EC50

EC50 | SMILES
> 1000 nM | O=C(O)c1ccc2nc(CN3CCC(Oc4cccc(Cc5ccc(Cl)cc5)c4Cl)CC3)n(C[C@@H]3CCO3)c2n1 [Compound 158a, 2-[(4-{2-chloro-3-[(4-chlorophenyl)methyl]phenoxy}piperidin-1-yl)methyl]-3-{[(2S)-oxetan-2-yl]methyl}-3H-imidazo[4,5-b]pyridine-5-carboxylic acid]
0.038 nM | O=C(O)c1ccc2nc(CN3CCC(Oc4ccnc(Cc5ccc(Cl)cc5)n4)CC3)n(C[C@@H]3CCO3)c2n1 [Compound 152a, 2-{[4-({2-[(4-chlorophenyl)methyl]pyrimidin-4-yl}oxy)piperidin-1-yl]methyl}-3-{[(2S)-oxetan-2-yl]methyl}-3H-imidazo[4,5-b]pyridine-5-carboxylic acid]
0.083 nM | O=C(O)c1ccc2nc(C[C@H]3CC[C@H](Oc4cccc(Cc5ccc(Cl)cc5)n4)CC3)n(C[C@@H]3CCO3)c2n1 [Compound 181a, 3-{[(2S)-oxetan-2-yl]methyl}-2-{[trans-4-({6-[(4-chlorophenyl)methyl]pyridin-2-yl}oxy)cyclohexyl]methyl}-3H-imidazo[4,5-b]pyridine-5-carboxylic acid]
2.3 nM | Cn1c(C[C@H]2CC[C@H](Oc3ccnc(Cc4ccc(Cl)cc4)n3)CC2)nc2ccc(C(=O)O)nc21 [Compound 180a, 3-methyl-2-{[trans-4-({2-[(4-chlorophenyl)methyl]pyrimidin-4-yl}oxy)cyclohexyl]methyl}-3H-imidazo[4,5-b]pyridine-5-carboxylic acid]
4.4 nM | O=C(O)c1ccc2nc(CN3CCC(Oc4cccc(CN5Cc6ccccc6C5=O)n4)CC3)n(C[C@@H]3CCO3)c2n1 [Compound 148a, 3-{[(2S)-oxetan-2-yl]methyl}-2-{[4-({6-[(1-oxo-2,3-dihydro-1H-isoindol-2-yl)methyl]pyridin-2-yl}oxy)piperidin-1-yl]methyl}-3H-imidazo[4,5-b]pyridine-5-carboxylic acid]
40 nM | O=C(O)c1ccc2nc(CN3CCC(Oc4cc(C(F)(F)F)cc(Cc5ccc(Cl)cc5)n4)CC3)n(C[C@@H]3CCO3)c2n1 [Compound 156a, 2-{[4-({6-[(4-chlorophenyl)methyl]-4-(trifluoromethyl)pyridin-2-yl}oxy)piperidin-1-yl]methyl}-3-{[(2S)-oxetan-2-yl]methyl}-3H-imidazo[4,5-b]pyridine-5-carboxylic acid]
1.2 nM | O=C(O)c1ccc2nc(CN3CCC(Oc4ccnc(Cc5ccc(Cl)cc5F)n4)C(F)(F)C3)n(C[C@@H]3CCO3)c2n1 (stereo partly drawn) [Compound 168a, 2-{[4-({2-[(4-chloro-2-fluorophenyl)methyl]pyrimidin-4-yl}oxy)-3,3-difluoropiperidin-1-yl]methyl}-3-{[(2S)-oxetan-2-yl]methyl}-3H-imidazo[4,5-b]pyridine-5-carboxylic acid]
2.5 nM | O=C(O)c1ccc2nc(CN3CCC(Oc4nc(Cc5ccc(Cl)cc5)ncc4F)CC3)n(C[C@H]3CCOC3)c2n1 [Compound 197a, (R)-2-((4-((2-(4-chlorobenzyl)-5-fluoropyrimidin-4-yl)oxy)piperidin-1-yl)methyl)-3-((tetrahydrofuran-3-yl)methyl)-3H-imidazo[4,5-b]pyridine-5-carboxylic acid]
360 nM | O=C(O)c1ccc2nc(CN3CC4CC(Oc5ccnc(Cc6ccc(Cl)cc6)n5)CC4C3)n(C[C@@H]3CCO3)c2n1 (stereo partly drawn) [Compound 201a, 2-{[5-({2-[(4-chlorophenyl)methyl]pyrimidin-4-yl}oxy)-octahydrocyclopenta[c]pyrrol-2-yl]methyl}-3-{[(2S)-oxetan-2-yl]methyl}-3H-imidazo[4,5-b]pyridine-5-carboxylic acid]
2.8 nM | O=C(O)c1ccc2nc(CN3CCC(Oc4ccn(Cc5ccc(Cl)cc5F)n4)CC3)n(C[C@@H]3CCO3)c2c1 [Compound 116a, 2-{[4-({1-[(4-chloro-2-fluorophenyl)methyl]-1H-pyrazol-3-yl}oxy)piperidin-1-yl]methyl}-1-{[(2S)-oxetan-2-yl]methyl}-1H-1,3-benzodiazole-6-carboxylic acid]
0.7 nM | O=c1[nH]c(-c2ccc3nc(CN4CCC(Oc5ccnc(Cc6ccc(Cl)cc6)n5)CC4)n(C[C@@H]4CCO4)c3n2)no1 [Compound 198a, (S)-3-(2-((4-((2-(4-chlorobenzyl)pyrimidin-4-yl)oxy)piperidin-1-yl)methyl)-3-(oxetan-2-ylmethyl)-3H-imidazo[4,5-b]pyridin-5-yl)-1,2,4-oxadiazol-5(4H)-one]
0.6 nM | O=C(O)c1ccc2nc(Cc3ccc(Oc4ccnc(Cc5ccc(Cl)cc5)n4)cc3)n(C[C@@H]3CCO3)c2n1 [Compound 186a, 2-{[4-({2-[(4-chlorophenyl)methyl]pyrimidin-4-yl}oxy)phenyl]methyl}-3-{[(2S)-oxetan-2-yl]methyl}-3H-imidazo[4,5-b]pyridine-5-carboxylic acid]
1.3 nM | O=C(O)c1ccc2nc(CN3CCC(Oc4ccnc(Cc5ccc(Cl)cc5)n4)CC3)n(C[C@H]3CCOC3)c2n1 [Compound 196a, (R)-2-((4-((2-(4-chlorobenzyl)pyrimidin-4-yl)oxy)piperidin-1-yl)methyl)-3-((tetrahydrofuran-3-yl)methyl)-3H-imidazo[4,5-b]pyridine-5-carboxylic acid]
29 nM | O=C(O)c1ccc2nc(C[C@H]3CC[C@@H](Oc4cccc(Cc5ccc(Cl)cc5F)n4)CC3)n(C[C@@H]3CCO3)c2n1 [Compound 174a, 3-{[(2S)-oxetan-2-yl]methyl}-2-{[cis-4-({6-[(4-chloro-2-fluorophenyl)methyl]pyridin-2-yl}oxy)cyclohexyl]methyl}-3H-imidazo[4,5-b]pyridine-5-carboxylic acid]
0.045 nM | O=C(O)c1ccc2nc(C[C@H]3CC[C@H](Oc4nc(Cc5ccc(Cl)cc5)ncc4F)CC3)n(C[C@@H]3CCO3)c2n1 [Compound 188a, 3-{[(2S)-oxetan-2-yl]methyl}-2-{[trans-4-({2-[(4-chlorophenyl)methyl]-5-fluoropyrimidin-4-yl}oxy)cyclohexyl]methyl}-3H-imidazo[4,5-b]pyridine-5-carboxylic acid]
0.085 nM | O=C(O)c1ccc2nc(CN3CCC(Oc4nc(Cc5ccc(Cl)cc5F)ncc4F)CC3)n(C[C@@H]3CCO3)c2n1 [Compound 151a, (S)-2-((4-((2-(4-chloro-2-fluorobenzyl)-5-fluoropyrimidin-4-yl)oxy)piperidin-1-yl)methyl)-3-(oxetan-2-ylmethyl)-3H-imidazo[4,5-b]pyridine-5-carboxylic acid]
24 nM | Cc1cc(Cc2ccc(Cl)cc2)nc(OC2CCN(Cc3nc4ccc(C(=O)O)nc4n3C[C@@H]3CCO3)CC2)c1 [Compound 154a, 2-{[4-({6-[(4-chlorophenyl)methyl]-4-methylpyridin-2-yl}oxy)piperidin-1-yl]methyl}-3-{[(2S)-oxetan-2-yl]methyl}-3H-imidazo[4,5-b]pyridine-5-carboxylic acid]
1.2 nM | O=C(O)c1ccc2nc(CN3CCC(n4ccc5ccc(Cc6ccc(Cl)cc6F)nc54)CC3)n(C[C@@H]3CCO3)c2n1 [Compound 140a, 2-[(4-{6-[(4-chloro-2-fluorophenyl)methyl]-1H-pyrrolo[2,3-b]pyridin-1-yl}piperidin-1-yl)methyl]-3-{[(2S)-oxetan-2-yl]methyl}-3H-imidazo[4,5-b]pyridine-5-carboxylic acid]
0.41 nM | O=C(O)c1ccc2nc(Cc3ccc(Oc4nc(Cc5ccc(Cl)cc5)ncc4F)cc3F)n(C[C@@H]3CCO3)c2n1 [Compound 190a, 2-{[4-({2-[(4-chlorophenyl)methyl]-5-fluoropyrimidin-4-yl}oxy)-2-fluorophenyl]methyl}-3-{[(2S)-oxetan-2-yl]methyl}-3H-imidazo[4,5-b]pyridine-5-carboxylic acid]
130 nM | O=C(O)c1ccc2nc(CN3CC=C(c4cnc5ccc(Cc6ccc(Cl)cc6F)nn45)CC3)n(C[C@@H]3CCO3)c2n1 [Compound 192a, 2-[(4-{6-[(4-chloro-2-fluorophenyl)methyl]imidazo[1,2-b]pyridazin-3-yl}-1,2,3,6-tetrahydropyridin-1-yl)methyl]-3-{[(2S)-oxetan-2-yl]methyl}-3H-imidazo[4,5-b]pyridine-5-carboxylic acid]
0.07 nM | N#Cc1ccc(Cc2nccc(O[C@H]3CC[C@H](Cc4nc5ccc(C(=O)O)nc5n4C[C@@H]4CCO4)CC3)n2)cc1 [Compound 182a, 3-{[(2S)-oxetan-2-yl]methyl}-2-{[trans-4-({2-[(4-cyanophenyl)methyl]pyrimidin-4-yl}oxy)cyclohexyl]methyl}-3H-imidazo[4,5-b]pyridine-5-carboxylic acid]

SMILES | EC50
O=C(O)c1ccc2nc(CN3CCC(Oc4cnn(Cc5ccc(Cl)cc5F)c4)CC3)n(C[C@@H]3CCO3)c2n1 [Compound 184a, 2-{[4-({1-[(4-chloro-2-fluorophenyl)methyl]-1H-pyrazol-4-yl}oxy)piperidin-1-yl]methyl}-3-{[(2S)-oxetan-2-yl]methyl}-3H-imidazo[4,5-b]pyridine-5-carboxylic acid] | 90 nM

Same assay, conditions: HEK293/CRE-Luc cell line stably expressing the GLP-1 Receptor; 30 min incubation at 37° C.; read-out: GLP1R cAMP Stimulation DR: pEC50 (converted)

SMILES | EC50
O=C(O)c1ccc2nc(CN3CCC(Oc4cnn(Cc5ccc(Cl)cc5F)c4)CC3)n(C[C@@H]3CCO3)c2n1 [Compound 184a, 2-{[4-({1-[(4-chloro-2-fluorophenyl)methyl]-1H-pyrazol-4-yl}oxy)piperidin-1-yl]methyl}-3-{[(2S)-oxetan-2-yl]methyl}-3H-imidazo[4,5-b]pyridine-5-carboxylic acid] | 100 nM
